Measurements published in publication PMC6576746, “Rational discovery of dual-indication multi-target PDE/Kinase inhibitor for precision anti-cancer therapy using structural systems pharmacology” (PLoS Computational Biology, 2019).

Columns and labels:
Assay in all cases: cells
Set-up in all cases: species or system panel of human cancer cell lines; Eurofins OncoPanel proliferation; nuclei count by high-content fluorescence imaging, 10-point dose response
[1] = tested on: M059J; conditions: Homo sapiens, M059J, 72 h, cell count, 3 days
In short: (§1)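 Cells in RPMI 1640/10% FBS or special medium received compound the day after seeding, with a time-zero plate; 3-day incubation at 37°C, 5% CO2. Nuclei imaged by fluorescence microscopy; 10 half-log doses from 100 μM, 0.1% DMSO. EC50, IC50, GI50 and activity area (0–10) from curve fits.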

[2] = tested on: SW982; conditions: Homo sapiens, SW982, 72 h, cell count, 3 days
In short: as §1

[3] = tested on: SU-DHL-8; conditions: Homo sapiens, SU-DHL-8, 72 h, cell count, 3 days
In short: as §1

[4] = tested on: PFSK-1; conditions: Homo sapiens, PFSK-1, 72 h, cell count, 3 days
In short: as §1

[5] = tested on: A204; conditions: Homo sapiens, A204, 72 h, cell count, 3 days
In short: as §1

[6] = tested on: CA46; conditions: Homo sapiens, CA46, 72 h, cell count, 3 days
In short: as §1

[7] = tested on: HuCCT1; conditions: Homo sapiens, HuCCT-1, 72 h, cell count, 3 days
In short: as §1

[8] = tested on: NTERA-2 cl.D1; conditions: Homo sapiens, NTERA-2-cl-D1, 72 h, cell count, 3 days
In short: as §1

[9] = tested on: Ramos (RA 1); conditions: Homo sapiens, Ramos, 72 h, cell count, 3 days
In short: as §1

[10] = tested on: Detroit 562; conditions: Homo sapiens, Detroit 562, 72 h, cell count, 3 days
In short: as §1

[11] = tested on: A431; conditions: Homo sapiens, A-431, 72 h, cell count, 3 days
In short: as §1

[12] = tested on: SW620; conditions: Homo sapiens, SW-620, 72 h, cell count, 3 days
In short: as §1

[13] = tested on: SJRH30; conditions: Homo sapiens, SJRH30, 72 h, cell count, 3 days
In short: as §1

[14] = tested on: CCRFCEM; conditions: Homo sapiens, CCRF-CEM, 72 h, cell count, 3 days
In short: as §1

[15] = 50% of maximum possible response

In the case of `C[C@@H]1CC(=O)NN=C1c1ccc(NN=C(C#N)C#N)cc1` [levosimendan], the IC50 [1, 15] is reported as 51.5 µM, the GI50 ([1]; corrected for time zero) is reported as 38.5 µM and the EC50 ([1]; curve inflection point) is reported as 48.8 µM. It also gave an IC50 [2, 15] of 43.7 µM, a GI50 ([2]; corrected for time zero) of 31.3 µM and an EC50 ([2]; curve inflection point) of 43.7 µM. It also gave an IC50 [3, 15] of 0.604 µM, a GI50 ([3]; corrected for time zero) of 0.512 µM and an EC50 ([3]; curve inflection point) of 0.604 µM. For the same compound, the IC50 [4, 15] was 19.6 µM, the GI50 ([4]; corrected for time zero) was 13.9 µM and the EC50 ([4]; curve inflection point) was 19.6 µM. For the same compound, the IC50 [5, 15] was 9.19 µM, the GI50 ([5]; corrected for time zero) was 7.57 µM and the EC50 ([5]; curve inflection point) was 7.85 µM. The IC50 [6, 15] was 13.2 µM, the GI50 ([6]; corrected for time zero) was 11 µM and the EC50 ([6]; curve inflection point) was 13.2 µM. The IC50 [7, 15] was 27.5 µM, the GI50 ([7]; corrected for time zero) was 24.8 µM and the EC50 ([7]; curve inflection point) was 25.4 µM. It also gave an IC50 [8, 15] of 11.8 µM, a GI50 ([8]; corrected for time zero) of 9.76 µM and an EC50 ([8]; curve inflection point) of 11.6 µM. It also gave an IC50 [9, 15] of 24.1 µM, a GI50 ([9]; corrected for time zero) of 21.2 µM and an EC50 ([9]; curve inflection point) of 24.1 µM. For the same compound, the IC50 [10, 15] was 50.9 µM, the GI50 ([10]; corrected for time zero) was 28.4 µM and the EC50 ([10]; curve inflection point) was 50.9 µM. The IC50 [11, 15] was 44.9 µM, the GI50 ([11]; corrected for time zero) was 42.8 µM and the EC50 ([11]; curve inflection point) was 44.9 µM. For the same compound, the IC50 [12, 15] was 19.7 µM, the GI50 ([12]; corrected for time zero) was 14.9 µM and the EC50 ([12]; curve inflection point) was 18.7 µM. It also gave an IC50 [13, 15] of 11.4 µM, a GI50 ([13]; corrected for time zero) of 7.7 µM and an EC50 ([13]; curve inflection point) of 9.67 µM. It also gave an IC50 [14, 15] of 35.5 µM, a GI50 ([14]; corrected for time zero) of 28.5 µM and an EC50 ([14]; curve inflection point) of 35.5 µM.
